# Data reported in US6461997B1, “Triazole sulfones having herbicidal activity” (Monsanto Technology LLC, priority 1999, dated 2002).
# Key:
# [1] = system: POAAN (annual bluegrass); assay: Pre-plant incorporated (PPI) herbicidal activity, cool season; type: in vivo, Poa annua; details: weed, PPI application
# Description: (§1) In another set of tests, the pre-plant incorporated (PPI) activity of compounds of this invention was evaluated on the same species as for the pre-emergence tests described above. In the PPI tests the following procedure, designed to simulate PPI application, was used.
# (§2) A pre-prepared topsoil mixture (described above) was placed in a pot and compacted to a depth of 1.0 to 1.25 cm from the top of the pot. Seeds of each of several monocotyledonous and dicotyledonous annual plant species were placed on top of the soil. A sufficient quantity of soil to cover the seeds and level fill the pot was weighed into an open container. A known amount of the test compound was dissolved or suspended in an organic solvent and applied by spraying to this cover soil. The cover soil was thoroughly mixed to distribute the test compound throughout the cover soil, and was then applied as a cover layer over the seeds. Untreated soil was used as a cover layer for control pots. After treatment the plants were placed in a greenhouse where they received 0.64 cm of overhead irrigation. All subsequent watering consisted of a light overhead mist and/or subirrigation as needed for germination and growth. Tables 9 and 10 below relate to warm season plant species which were placed after pre-emergence treatment in a greenhouse with a 30/21° C. day/night temperature regime. Tables 11 and 12 below relates to cool season plant species placed after pre-emergence treatment in a greenhouse or growth chamber with an 18/13° C. day/night temperature regime. Only the compounds of Examples 1, 6, 8, 11, 13 and 15-20 were included in PPI tests.
# (§3) Approximately 14 days after planting and treating, the plants were observed and herbicidal efficacy recorded as percent inhibition by comparison with untreated plants.
# [2] = system: SORVU (shattercane); assay: Pre-plant incorporated (PPI) herbicidal activity, warm season; type: in vivo, Sorghum vulgare; details: for Percent inhibition SORVU: PPI application; for PPI activity GR80, SORVU: pre-plant incorporated, lowest tested rate with 80% or greater inhibition, about 14 days
# Description: as §1, §2, §3
# [3] = system: SORVU (shattercane); assay: Pre-emergence herbicidal activity, warm season; type: in vivo, Sorghum vulgare; details: GR80 = lowest tested rate (300, 100, 30, 10 g/ha) with 80% or greater inhibition; approx. 14 days after treating; 30/21° C.
# Outline: (§4)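 GR80 values derive from percent inhibition relative to untreated plants, read roughly 14 days after sowing and pre-emergence soil-surface treatment (compound in 50:50 acetone/water; rates typically 10, 30, 100, 300 g/ha). Warm-season weeds grew at 30/21° C day/night, cool-season ones at 18/13° C; an asterisk marks activity without reaching 80% at the highest rate.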
# [4] = system: DIGSA (large crabgrass); assay: Pre-plant incorporated (PPI) herbicidal activity, warm season; type: in vivo, Digitaria sanguinalis; details: for Percent inhibition DIGSA: PPI application; for PPI activity GR80, DIGSA: pre-plant incorporated, lowest tested rate with 80% or greater inhibition, about 14 days
# Description: as §1, §2, §3
# [5] = system: ABUTH (velvetleaf); assay: as above; type: in vivo, Abutilon theophrasti; details: for Percent inhibition ABUTH: PPI application; for PPI activity (GR80) ABUTH: pre-plant incorporated, GR80 = lowest tested rate with 80% or greater inhibition, approx. 14 days after treating, 30/21° C.
# Description: as §1, §2, §3
# [6] = system: oilseed rape (BRSNS); assay: Selectivity test, PPI, cool season crop; type: in vivo, Brassica napus; details: PPI application
# Description: as §2, §3
# Additional pre-emergence and PPI tests were conducted by the procedures described above, on warm and cool season weed species in the presence of crop species, to assess herbicidal selectivity. Crop species included in warm season tests were corn (Zea mays, ZEAMX), rice (Oryza sativa, ORYSA) and soybean (Glycine max, GLYMX). Crop species included in cool season tests were wheat (Triticum aestivum, TRZAW), barley (Hordeunm vulgare, HORVX) and oilseed rape (Brassica napus, BRSNS).
# Tables 15 and 16 relate to pre-emergence and PPI tests respectively on warm season species. Table 17 relates to pre-emergence tests on cool season species.
# [7] = system: CHEAL (common lambsquarters); assay: Pre-emergence herbicidal activity, warm season; type: in vivo, Chenopodium album; details: GR80 = lowest tested rate (300, 100, 30, 10 g/ha) with 80% or greater inhibition; approx. 14 days after treating; 30/21° C.
# Outline: as §4
# [8] = system: AEGCY (jointed goatgrass); assay: Pre-plant incorporated (PPI) herbicidal activity, cool season; type: in vivo, Aegilops cylindrica; details: for PPI activity GR80, AEGCY: pre-plant incorporated, lowest tested rate with 80% or greater inhibition, about 14 days; for Percent inhibition AEGCY: weed, PPI application
# Description: as §1, §2, §3
# [9] = system: STEME (common chickweed); assay: as above; type: in vivo, Stellaria media; details: for PPI activity GR80, STEME: pre-plant incorporated, lowest tested rate with 80% or greater inhibition, about 14 days; for Percent inhibition STEME: weed, PPI application
# Description: as §1, §2, §3
# [10] = system: DATST (jimsonweed); assay: Pre-plant incorporated (PPI) herbicidal activity, warm season; type: in vivo, Datura stramonium; details: for Percent inhibition DATST: PPI application; for PPI activity (GR80) DATST: pre-plant incorporated, GR80 = lowest tested rate with 80% or greater inhibition, approx. 14 days after treating, 30/21° C.
# Description: as §1, §2, §3
smiles,measurement,setting,value
CCN(CC)C(=O)n1cnc(S(=O)(=O)C(F)(F)SCC(=O)OC)n1 [Example 11],Percent inhibition POAAN,[1]; 10 g/ha,0%
same,Percent inhibition POAAN,[1]; 30 g/ha,0%
same,Percent inhibition POAAN,[1]; 100 g/ha,0%
same,Percent inhibition POAAN,[1]; 300 g/ha,0%
same,Percent inhibition POAAN,[1]; 900 g/ha,70%
same,Percent inhibition SORVU,[2]; 10 g/ha,0%
same,Percent inhibition SORVU,[2]; 30 g/ha,0%
same,Percent inhibition SORVU,[2]; 100 g/ha,10%
same,Percent inhibition SORVU,[2]; 300 g/ha,65%
same,Percent inhibition SORVU,[2]; 900 g/ha,100%
same,"PPI activity GR80, SORVU",[2],300 g/ha
same,Pre-emergence activity (GR80) SORVU,[3],"* (activity observed, at least at highest rate, but <80% inhibition)"
same,Percent inhibition DIGSA,[4]; 10 g/ha,0%
same,Percent inhibition DIGSA,[4]; 30 g/ha,0%
same,Percent inhibition DIGSA,[4]; 100 g/ha,70%
same,Percent inhibition DIGSA,[4]; 300 g/ha,90%
same,Percent inhibition DIGSA,[4]; 900 g/ha,100%
same,"PPI activity GR80, DIGSA",[4],300 g/ha
same,Percent inhibition ABUTH,[5]; 10 g/ha,0%
same,Percent inhibition ABUTH,[5]; 30 g/ha,0%
same,Percent inhibition ABUTH,[5]; 100 g/ha,0%
same,Percent inhibition ABUTH,[5]; 300 g/ha,20%
same,Percent inhibition ABUTH,[5]; 900 g/ha,20%
same,PPI activity (GR80) ABUTH,[5],300 g/ha
same,Percent inhibition BRSNS,[6]; 10 g/ha,0%
same,Percent inhibition BRSNS,[6]; 30 g/ha,0%
same,Percent inhibition BRSNS,[6]; 100 g/ha,0%
same,Percent inhibition BRSNS,[6]; 300 g/ha,0%
same,Percent inhibition BRSNS,[6]; 900 g/ha,0%
same,Pre-emergence activity (GR80) CHEAL,[7],300 g/ha
same,"PPI activity GR80, AEGCY",[8],[empty]
same,Percent inhibition AEGCY,[8]; 10 g/ha,0%
same,Percent inhibition AEGCY,[8]; 30 g/ha,0%
same,Percent inhibition AEGCY,[8]; 100 g/ha,0%
same,Percent inhibition AEGCY,[8]; 300 g/ha,0%
same,Percent inhibition AEGCY,[8]; 900 g/ha,10%
same,"PPI activity GR80, STEME",[9],300 g/ha
same,Percent inhibition STEME,[9]; 10 g/ha,0%
same,Percent inhibition STEME,[9]; 30 g/ha,0%
same,Percent inhibition STEME,[9]; 100 g/ha,0%
same,Percent inhibition STEME,[9]; 300 g/ha,0%
same,Percent inhibition STEME,[9]; 900 g/ha,30%
same,Percent inhibition DATST,[10]; 10 g/ha,0%
same,Percent inhibition DATST,[10]; 30 g/ha,0%
same,Percent inhibition DATST,[10]; 100 g/ha,20%
same,Percent inhibition DATST,[10]; 300 g/ha,20%
same,Percent inhibition DATST,[10]; 900 g/ha,80%
same,PPI activity (GR80) DATST,[10],100 g/ha
CCN(CC)C(=O)n1cnc(S(=O)(=O)C(F)(F)C(F)F)n1 [Example 16],Percent inhibition POAAN,[1]; 10 g/ha,20%
same,Percent inhibition POAAN,[1]; 30 g/ha,50%
same,Percent inhibition POAAN,[1]; 100 g/ha,65%
same,Percent inhibition POAAN,[1]; 300 g/ha,100%
same,Percent inhibition POAAN,[1]; 900 g/ha,100%
same,Percent inhibition SORVU,[2]; 10 g/ha,20%
same,Percent inhibition SORVU,[2]; 30 g/ha,80%
same,Percent inhibition SORVU,[2]; 100 g/ha,100%
same,Percent inhibition SORVU,[2]; 300 g/ha,100%
same,Percent inhibition SORVU,[2]; 900 g/ha,100%
same,"PPI activity GR80, SORVU",[2],30 g/ha
same,Pre-emergence activity (GR80) SORVU,[3],100 g/ha
same,Percent inhibition DIGSA,[4]; 10 g/ha,70%
same,Percent inhibition DIGSA,[4]; 30 g/ha,100%
same,Percent inhibition DIGSA,[4]; 100 g/ha,90%
same,Percent inhibition DIGSA,[4]; 300 g/ha,100%
same,Percent inhibition DIGSA,[4]; 900 g/ha,100%
same,"PPI activity GR80, DIGSA",[4],10 g/ha
same,Percent inhibition ABUTH,[5]; 10 g/ha,0%
same,Percent inhibition ABUTH,[5]; 30 g/ha,0%
same,Percent inhibition ABUTH,[5]; 100 g/ha,0%
same,Percent inhibition ABUTH,[5]; 300 g/ha,30%
same,Percent inhibition ABUTH,[5]; 900 g/ha,95%
same,PPI activity (GR80) ABUTH,[5],100 g/ha
same,Percent inhibition BRSNS,[6]; 10 g/ha,0%
same,Percent inhibition BRSNS,[6]; 30 g/ha,0%
same,Percent inhibition BRSNS,[6]; 100 g/ha,0%
same,Percent inhibition BRSNS,[6]; 300 g/ha,30%
same,Percent inhibition BRSNS,[6]; 900 g/ha,75%
same,Pre-emergence activity (GR80) CHEAL,[7],300 g/ha
same,"PPI activity GR80, AEGCY",[8],300 g/ha
same,Percent inhibition AEGCY,[8]; 10 g/ha,0%
same,Percent inhibition AEGCY,[8]; 30 g/ha,0%
same,Percent inhibition AEGCY,[8]; 100 g/ha,0%
same,Percent inhibition AEGCY,[8]; 300 g/ha,20%
same,Percent inhibition AEGCY,[8]; 900 g/ha,60%
same,"PPI activity GR80, STEME",[9],300 g/ha
same,Percent inhibition STEME,[9]; 10 g/ha,40%
same,Percent inhibition STEME,[9]; 30 g/ha,75%
same,Percent inhibition STEME,[9]; 100 g/ha,60%
same,Percent inhibition STEME,[9]; 300 g/ha,60%
same,Percent inhibition STEME,[9]; 900 g/ha,95%
same,Percent inhibition DATST,[10]; 10 g/ha,0%
same,Percent inhibition DATST,[10]; 30 g/ha,0%
same,Percent inhibition DATST,[10]; 100 g/ha,20%
same,Percent inhibition DATST,[10]; 300 g/ha,70%
same,Percent inhibition DATST,[10]; 900 g/ha,100%
same,PPI activity (GR80) DATST,[10],100 g/ha
